# Key:
# Assay type in all cases: cell-based, human
# AR V7 variant mRNA = assay: AR V7 variant RNA in VCaP cells; details: 48 hrs
# Experimental: Cells were plated at 10,000 cells per well. […] ISIS 549148 was included as a negative control. After an incubation period of 48 hrs, RNA levels of full length AR, the V7 variant, PSA and TMPRSS2 were measured.
# A separate set of cells was treated with MDV-3100 at 0.04 μM, 0.2 μM, 1.0 μM, or 5.0 μM. After an incubation period of 48 hrs, RNA levels of full length AR, the V7 variant, PSA and TMPRSS2 were measured. The data is presented in Tables 108 expressed as percent expression of gene levels compared to the untreated control.
# Cells were plated at 15,000 cells per well and cultured in CSS media for 16 hours. […] ISIS 549148 was included as a negative control. After 4 hrs, 1 nM DHT was added. […] After an incubation period of 48 hrs, RNA levels of AR, PSA and TMPRSS2 were measured. […]
# C4-2B cells = assay: C4-2B cell proliferation (complete or CSS+DHT medium; Example 30); details: 5 days; for Proliferation (% untreated control): C4-2B cells
# Experimental: After a treatment period of 5 days in complete medium or CSS+1 nM DHT medium, the proliferative capacity of the cancer cells was measured with using CellTiter 96® AQueous One or CellTiter-Glo® Solution Cell Proliferation kit (Promega), following the manufacturer's instructions.
# cleaved PARP = assay: Cleaved PARP western blot in VCaP cells
# LMR20 cells = assay: Proliferation of MDV3100-resistant LMR20 cells (MTT; with R1881 or DHT); details: 5 days
# Experimental: LMR20 cells were plated at 1,500 cells per well in phenol red-free medium with charcoal-stripped fetal bovine serum (CSS), to remove any androgens from the medium (Life Technologies). […] The synthetic androgen agonist, R1881, (Takeda, A. N. et al., Mol. Pharmacol. 2007. 71: 473-82) was added on day 1 at 1 nM dose to a set of cells also treated with each of the antisense oligonucleotides. DHT was added on day 1 at a dose of 10 nM to another set of cells also treated with each of the antisense oligonucleotides. […] After a treatment period of 5 days, the proliferative ability of the cancer cells was measured by the standard MTT assay. Results are presented in Table 42 as percent inhibition of proliferation, relative to non-treated cells.
# 22RV1 cells = assay: 22RV1 cell proliferation, ASO in combination with MDV3100 (Example 22); details: Homo sapiens, 22Rv1, read-out: inhibited proliferation, MDV3100 with control oligonucleotide ISIS 549148
# Experimental: 22RV1 cells were plated at 2,000 cells per well in 5% CSS medium for 48 hours. […] ISIS 549148 was included as a negative control. […] After a treatment period of 3 days, the proliferative capacity of the cancer cells was measured with CellTiter 96® AQueous One Solution Cell Proliferation kit (Promega), following the manufacturer's instructions. Results are presented in Tables 58-62 as percent inhibition of proliferation, relative to non-treated cells.
# PSA mRNA = assay: PSA expression in C4-2 cells; details: 48 hrs; for Percent inhibition of PSA expression: C4-2 cells, CSS + DHT medium
# Experimental: Cells were plated at 1,000 cells per well. […] After an incubation period of 48 hrs, RNA levels of AR, PSA and TMPRSS2 were measured.
# Cells were plated at 2,000 cells per well and cultured in CSS media with 1 nM DHT. […] After an incubation period of 48 hrs, RNA levels of AR, PSA and TMPRSS2 were measured.
# VCaP cells = assay: VCaP apoptosis (Caspase-Glo 3/7); details: complete medium, 72 hours
# Experimental: After a treatment period of 72 hours in complete medium, apoptosis of the cancer cells was measured with Caspase-Glo 3/7 assay (Promega). Results are presented in Tables 117 and 118 as percent apoptosis of the cells, relative to non-treated cells.
compound,measurement,setting,value
"CNC(=O)c1ccc(N2C(=S)N(c3ccc(C#N)c(C(F)(F)F)c3)C(=O)C2(C)C)cc1F [MDV3100, 4-(3-(4-cyano-3-(trifluoromethyl)phenyl)-5,5-dimethyl-4-oxo-2-thioxoimidazolidin-1-yl)-2-fluoro-N-methylbenzamide, reference compound]","Percent of gene expression, AR V7 variant","AR V7 variant mRNA; CSS + DHT medium, 0.04 μM",82%
same,"Percent of gene expression, AR V7 variant","AR V7 variant mRNA; CSS + DHT medium, 0.2 μM",65%
same,"Percent of gene expression, AR V7 variant","AR V7 variant mRNA; CSS + DHT medium, 1.0 μM",101%
same,"Percent of gene expression, AR V7 variant","AR V7 variant mRNA; CSS + DHT medium, 5.0 μM",181%
same,"Percent of gene expression, AR V7 variant","AR V7 variant mRNA; complete medium, 0.04 μM",172%
same,"Percent of gene expression, AR V7 variant","AR V7 variant mRNA; complete medium, 0.2 μM",179%
same,"Percent of gene expression, AR V7 variant","AR V7 variant mRNA; complete medium, 1.0 μM",244%
same,"Percent of gene expression, AR V7 variant","AR V7 variant mRNA; complete medium, 5.0 μM",237%
same,Proliferation (% untreated control),"C4-2B cells; CSS + DHT medium, 0.04 μM",125 % untreated control
same,Proliferation (% untreated control),"C4-2B cells; CSS + DHT medium, 0.2 μM",100 % untreated control
same,Proliferation (% untreated control),"C4-2B cells; CSS + DHT medium, 1 μM",83 % untreated control
same,Proliferation (% untreated control),"C4-2B cells; CSS + DHT medium, 5.0 μM",17 % untreated control
same,Proliferation (% untreated control),"C4-2B cells; complete medium, 0.04 μM",131 % untreated control
same,Proliferation (% untreated control),"C4-2B cells; complete medium, 0.2 μM",105 % untreated control
same,Proliferation (% untreated control),"C4-2B cells; complete medium, 1 μM",72 % untreated control
same,Proliferation (% untreated control),"C4-2B cells; complete medium, 5.0 μM",60 % untreated control
same,proliferation of C4-2B cells,C4-2B cells; complete medium or CSS+1 nM DHT,reduced proliferation of the cells in a dose dependent compared to the control
same,cleaved PARP levels (western blot),cleaved PARP,increased in a dose-dependent manner
same,Percent inhibition of LMR20 cell proliferation,"LMR20 cells; CSS + DHT, ASO 0.04 μM",0%
same,Percent inhibition of LMR20 cell proliferation,"LMR20 cells; CSS + DHT, ASO 0.20 μM",1%
same,Percent inhibition of LMR20 cell proliferation,"LMR20 cells; CSS + DHT, ASO 1.0 μM",13%
same,Percent inhibition of LMR20 cell proliferation,"LMR20 cells; CSS + DHT, ASO 5.0 μM",41%
same,Percent inhibition of LMR20 cell proliferation,"LMR20 cells; CSS + R1881, ASO 0.04 μM",0%
same,Percent inhibition of LMR20 cell proliferation,"LMR20 cells; CSS + R1881, ASO 0.20 μM",5%
same,Percent inhibition of LMR20 cell proliferation,"LMR20 cells; CSS + R1881, ASO 1.0 μM",31%
same,Percent inhibition of LMR20 cell proliferation,"LMR20 cells; CSS + R1881, ASO 5.0 μM",67%
same,Percent inhibition of LMR20 cell proliferation,"LMR20 cells; CSS, ASO 0.04 μM",0%
same,Percent inhibition of LMR20 cell proliferation,"LMR20 cells; CSS, ASO 0.20 μM",5%
same,Percent inhibition of LMR20 cell proliferation,"LMR20 cells; CSS, ASO 1.0 μM",0%
same,Percent inhibition of LMR20 cell proliferation,"LMR20 cells; CSS, ASO 5.0 μM",11%
same,inhibition at 1 µM,22RV1 cells,5%
same,Percent inhibition of PSA expression,PSA mRNA; 0.04 μM,9%
same,Percent inhibition of PSA expression,PSA mRNA; 0.2 μM,8%
same,Percent inhibition of PSA expression,PSA mRNA; 1 μM,51%
same,Percent inhibition of PSA expression,PSA mRNA; 5.0 μM,73%
same,Percent inhibition of PSA expression in C4-2 cells cultured in complete medium,PSA mRNA; 0.04 μM,28%
same,Percent inhibition of PSA expression in C4-2 cells cultured in complete medium,PSA mRNA; 0.2 μM,40%
same,Percent inhibition of PSA expression in C4-2 cells cultured in complete medium,PSA mRNA; 1 μM,72%
same,Percent inhibition of PSA expression in C4-2 cells cultured in complete medium,PSA mRNA; 5.0 μM,89%
same,Apoptosis (% untreated control) in VCaP cells treated with MDV-3100,VCaP cells; 5.0 nM,528%
same,Apoptosis (% untreated control) in VCaP cells treated with MDV-3100,VCaP cells; 0.04 μM,186%
same,Apoptosis (% untreated control) in VCaP cells treated with MDV-3100,VCaP cells; 0.2 μM,210%
same,Apoptosis (% untreated control) in VCaP cells treated with MDV-3100,VCaP cells; 1.0 μM,612%
same,apoptosis of VCaP cells,VCaP cells,increased apoptosis of the cells in a dose dependent compared to the control
